Like-named read-outs stand apart in the source and are kept apart here.
Assays:
[1] = target: T1, SARS-CoV-2 Spike-RBD (ancestral, WT) / ACE2 (Homo sapiens, UniProt Q9BYF1); assay: biochemical; format: binding
T1 construct: a SARS-CoV-2 RBD protein containing a C-terminal His tag; a full-length ACE2 peptide with a C-terminal Fc tag; purchased Sino Biological

[2] = target: T2, SARS-CoV-2 Spike-RBD (lambda) / ACE2 (Homo sapiens, UniProt Q9BYF1); assay: biochemical; format: binding
T2 construct: a SARS-CoV-2 RBD protein containing a C-terminal His tag; a full-length ACE2 peptide with a C-terminal Fc tag; purchased Sino Biological
T2 sequence (Q9BYF1 18-740): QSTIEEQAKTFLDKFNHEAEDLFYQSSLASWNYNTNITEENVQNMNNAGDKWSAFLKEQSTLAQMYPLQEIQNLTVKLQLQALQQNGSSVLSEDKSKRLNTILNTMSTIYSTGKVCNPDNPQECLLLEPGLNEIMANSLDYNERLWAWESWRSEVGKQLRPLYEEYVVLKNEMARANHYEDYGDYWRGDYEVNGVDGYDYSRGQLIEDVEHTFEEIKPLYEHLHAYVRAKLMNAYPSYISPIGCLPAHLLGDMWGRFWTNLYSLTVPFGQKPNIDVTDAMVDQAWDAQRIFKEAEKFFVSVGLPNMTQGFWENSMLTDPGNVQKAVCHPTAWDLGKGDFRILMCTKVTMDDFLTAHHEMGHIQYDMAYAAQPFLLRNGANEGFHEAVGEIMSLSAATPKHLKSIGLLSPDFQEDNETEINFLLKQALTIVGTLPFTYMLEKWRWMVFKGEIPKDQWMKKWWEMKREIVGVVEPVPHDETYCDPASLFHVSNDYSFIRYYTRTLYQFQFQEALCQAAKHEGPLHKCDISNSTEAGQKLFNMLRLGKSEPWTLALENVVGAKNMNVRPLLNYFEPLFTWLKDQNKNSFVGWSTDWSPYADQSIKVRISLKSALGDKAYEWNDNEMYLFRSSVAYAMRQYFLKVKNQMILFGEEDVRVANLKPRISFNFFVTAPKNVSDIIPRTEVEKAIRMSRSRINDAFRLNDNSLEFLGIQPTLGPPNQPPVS

T1 sequence (Q9BYF1 18-740): as above

Row | Compound | IC50 ([1]; IC50 spike RBD/ACE2 binding, WT RBD sequence) | fold difference in IC50 for any variant versus WT RBD [2] | IC50 ([1]; read-out: IC50 spike RBD/ACE2 binding, WT RBD sequence)
1 | O=C1Nc2ccc(Cl)cc2C1=NNc1ccc([N+](=O)[O-])cc1[N+](=O)[O-] [H2L, 5-chloro-3-(2-(2,4-dinitrophenyl)hydrazono)indolin-2-one] | 0.448 µM | ≤ 1.4 fold | 
2 | REGN10933 |  |  | 0.0013 µM
